These results are taken from patent US10392363B2, “Methods for treating protozoan infections” (Neoculi Pty Ltd., priority 2014, dated 2019).

Series [1] is described as follows: Cell toxicity assay (WST-1). The class given is cell-based, mouse. The note with it: mouse, RAW 264.7, 24 hours, read-out: GI50 macrophage. Summed up: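 RAW 264.7 macrophages plated at 2×10^4 cells/ml, rested 2 h at 37 °C, then exposed to compounds (from DMSO) for 24 h. Metabolic activity read by WST-1 at 450 nm after 1 h; IC50 derived, selectivity index as macrophage IC50 divided by antiparasitic IC50.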

The nature of series [2]: Microsomal stability, mouse. The class given is in vitro ADME. The following applies: mouse, 1 μM. As for the experimental part:
Incubation methods: The metabolic stability assay was performed by incubating each test compound (at 1 μM) with human and mouse liver microsomes (Xenotech, Lot#1210057 and 1310211, respectively) at 37° C. and 0.4 mg/mL protein concentration. The metabolic reaction was initiated by the addition of an NADPH-regenerating system (i.e. NADPH is the cofactor required for CYP450-mediated metabolism) and quenched at various time points over a 60 minute incubation period by the addition of acetonitrile containing diazepam as internal standard. Control samples (containing no NADPH) were included (and quenched at 2, 30 and 60 minutes) to monitor for potential degradation in the absence of cofactor. Analytical conditions: Instrument: Waters Micromass Xevo G2 QTOF coupled to a Waters Acquity UPLC; Detection: Positive electrospray ionisation under MSE mode; Cone Voltage 30 V; Column: Ascentis Express Amide column (50×2.1 mm, 2.7 μm); LC conditions: Gradient cycle time: 4 minutes; Injection volume: 5 μL; Flow rate: 0.4 mL/min; Mobile phase: Acetonitrile-water gradient with 0.05% formic acid Metabolite; Identification: A metabolite screen was not included in this study, however, since data was acquired using MSE mode, which allows for the simultaneous acquisition of low and high collision energy MS spectra, a post-hoc metabolite search may be conducted at a later date if warranted. […]

The subject of series [3] is Trypanosoma cruzi (Tulahuen trypomastigotes expressing β-galactosidase, in L6 cells). Kind of series: In vitro T. cruzi assay for determination of IC50. The class given is cell-based. The following applies: Trypanosoma cruzi, TULAHUEN, L6; 96 h incubation. The essentials: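 Tulahuen T. cruzi expressing β-galactosidase, grown in L6 cells; compounds tested as seven-point serial dilutions in triplicate after removing extracellular trypomastigotes.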

Series [4] relates to Leishmania donovani promastigotes. The series can be described thus: L. donovani screening (Alamarblue). The class given is cell-based. The essentials:
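Growth read as Alamarblue fluorescence (530 nm excitation, 590 nm emission) after culture at 27° C. Single-point screen: 10 μM compound, 4×10^5 cells/ml, 96 h; titration: 0.005–10 μM in third-steps, 1×10^6 cells/ml, 72 h, using exponentially growing procyclic promastigotes.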
(In general: Resazurin is reduced to fluorescent resorufin, in cell work by metabolically active cells.)

Series [5] has as its system Giardia duodenalis (strain WB trophozoites). Kind of series: Giardia adherence assay. The class given is cell-based. The note with it: exposed for 5 hours. As for the experimental part:
Giardia strain WB was grown until confluent (grown and maintained in TYI-S-33 medium with 10% foetal bovine serum). For the assay, media of a confluent culture was replaced with fresh TYI-S-33 medium. Cultures were then cold shocked (on ice) for 40 minutes to detach trophozoites. The cell density of the cultures was adjusted to 1×10^6 cells/ml and 1 ml was added to each well of a 24 well plate already containing 1 ml of diluted compounds (see below). […] After incubation the coverslips were removed, air-dried and stained with Diff-Quik (a Romanowski stain variant). Coverslips were mounted onto glass slides using polymount. Images at 10× magnification were taken at 5 random locations per coverslip. […] Stock solutions of compounds were prepared in DMSO at 25.6 mg/ml. Compounds were diluted 1:100 in TYI-S-33 medium. A 1:2 serial dilution was then performed in TYI-S-33 medium in 24 well plates.

The structures appear in SMILES notation.

`N=C(N/N=C/c1ccc(Cl)cc1)N/N=C/c1ccc(Cl)cc1` [NCL812, 1,3-bis[(E)-(4-chlorophenyl)methyleneamino]guanidine]: the GI50 – broadly, the concentration at which growth is held to half of that of the control – at 24 h in series [1] was 14.8 ± 1.34 µM. For the same molecule, the “predicted hepatic extraction ratio (EH)” value in series [2] is below 0.3. For the same molecule, the IC50 – broadly, the concentration that gives 50% inhibition – in series [3] was above 11 µM; in series [4] (Leishmania donovani, 72 h), 2.9 ± 0.24 µM. The “L. donovani SI” value in series [4] (GI50 of macrophages divided by IC50 of parasites) came to 5.12. Moreover, in series [5], the “number of adherent trophozoites” value is given as “significant decreases”.
